Two compounds from publication PMC3641071, “Pharmacokinetics and Efficacy of PEGylated Liposomal Doxorubicin in an Intracranial Model of Breast Cancer” (PLoS ONE, 2013) can be followed below.

Data set [1] in a line: Pharmacokinetic study: sum total doxorubicin in plasma, brain tumor and brain by HPLC-FL. The data set is classed as in vivo. The settings on record: 6 mg/kg IV x1; for AUC(0-inf): read-out: AUC0-∞ of sum total doxorubicin. How it is done: Group 1 (n = 23) received NonL-doxo administered over 10–15 seconds at 6 mg/kg IV ×1 via tail vein.
Approximately 1 mL of blood was collected via terminal cardiac puncture following deep anesthesia (ketamine 100 mg/kg IP ×1 and Domitor® 1 mg/kg IP ×1) using sodium heparin as an anticoagulant and centrifuged at 1,500 g for 5 minutes to collect plasma. Brain tumor, peri-tumoral brain and normal (contralateral, non-tumor) brain were collected from each mouse. Plasma, tumor, and tissues were placed in cryopreservation vials and preserved by snap freezing using liquid nitrogen. All samples were stored at −80°C until analysis.
Total tissue and tumor weight was recorded at time of collection. Whole tissue and tumors were snap frozen in liquid nitrogen and stored at −80°C until homogenized. To form tissue and tumor homogenates, the intact tissues and tumors were thawed and sectioned. The sections were weighed and diluted in a 1:3 ratio with phosphate buffered saline (PBS) solution. Finally, these mixtures were homogenized by placing zirconium oxide beads (15 small and 2 large; Omni International Inc, Kennesaw, GA) into 2 mL tubes at […] using a Precellys 24 homogenizer (Omni International Inc, Kennesaw, GA) twice for 15 sec each with a 5 sec wait between each run.
Samples were further processed for the analytical studies using protein precipitation with acetonitrile. An 800 µL of extraction solution containing internal standard (acetonitrile with 100 ng/mL daunorubicin) was added to 200 µL of plasma, tumor or tissue homogenate into a 2 mL microcentrifuge tube. The samples were vortexed for 10 min and centrifuged at 10,000×g for 10 min at 4°C. […] The samples were then vortexed, transferred into auto-sampler vials and analyzed by high-performance liquid chromatography (HPLC) using fluorescence (FL) detection (excitation wavelength: 490 nm/ emission wavelength: 590 nm). The HPLC-FL method to measure sum total (encapsulated and released) doxorubicin in plasma, tumor, and tissues was modified from previous studies, [23], [24].
The area under the concentration versus time curve from 0 to ∞ (AUC0–∞) was calculated using the linear up/log down rule. The plasma volume of distribution (Vd), clearance (CL), and half-life (t1/2) were calculated using standard equations. The maximum concentration (Cmax) and time of Cmax (tmax) were determined by visual inspection of the concentration versus time data.

The test system of data set [2] is intracranial MDA-MB-231-BR human triple-negative breast cancer xenografts. As to the kind of experiment: Efficacy study: median survival in intracranial model of breast cancer. The following applies: single agent, control 26 (25-28). Type of data set: in vivo, Foxn1nu/nu mice.
Experimental: Therapeutic studies and assessment for response were performed with the assistance of the Mouse Phase I Unit (MP1U). Female, Foxn1^nu/nu mice, approximately 20 grams and aged 8 weeks of age were bred in-house from animals purchased from Charles River Laboratories International, Inc. (Wilmington, MA; Stock #490) and were used for all studies. […] Cells were stereotactically-injected into the right caudate nucleus of the basal ganglia using a 27 gauge needle (from Bregma a:1.0mm, l:-2.0 mm, d:-4.0 mm) which remained in place for a period of 2 minutes (min) to minimize reflux through the needle track.
The Kaplan-Meier method and Log-rank tests were used to evaluate and compare overall survival among treatment groups. Unadjusted p-values are reported. For bioluminescence imaging, fold changes were calculated relative to the start date of treatment. […] For every time point where at least two animals were alive in the treatment group, the median level and interquartile range (25th–75th percentile) for bioluminescence imaging were calculated.
The test system of data set [3] is intracranial MDA-MB-231-BR luciferase-expressing tumors. The experiment in a line: Bioluminescence imaging of intracranial tumors. Type of data set: in vivo, Foxn1nu/nu mice. How it is done:
All animals were anesthetized via inhalation with 2% vaporized isoflurane during the imaging process. Approximately 15 min prior to imaging, all inoculated mice received an intraperitoneal (IP) injection of D-Luciferin dissolved in PBS (150 mg/kg; Caliper Life Sciences, Hopkinton, MA). To confirm the presence or absence of intracranial tumor, mice were imaged using the IVIS Lumina camera (Caliper Life Sciences, Hopkinton, MA). Images were analyzed using Living Image 4.0 Software (Caliper Life Sciences, Hopkinton, MA). All values were recorded as photons/second and were corrected for the presence of background signal.
Treatment was ongoing until clinical symptoms necessitated sacrifice. […] Mice were weighed a minimum of three times/weekly and were monitored by optical imaging weekly until clinical symptoms (i.e. decreased response to stimuli, neurologic dysfunction, weight loss of 20% and/or a Body Composition Score of 2 or less) necessitated sacrifice.
The Kaplan-Meier method and Log-rank tests were used to evaluate and compare overall survival among treatment groups. […] For bioluminescence imaging, fold changes were calculated relative to the start date of treatment. If present, negative imaging values (due to correction for background) were recorded and set to zero. […]

For a further data set, the system named is MDA-MB-231-BR cells. The experiment in a line: Cell viability (MTS) assay, single agent and combination treatments. Type of data set: cell-based. The settings on record: Homo sapiens, read-out: IC50 (50% reduction in MTS dye conversion), 72 hours, single agent. Here is the method: A mitochondrial dye conversion assay (Cell Titer 96® Aqueous One Solution Cell Proliferation Assay; Promega Corp., Madison, WI) was used to measure cell viability after treatment. This assay was conducted according to manufacturer's instructions, with modifications. […] Cell counting was performed with an automated cell counter. Cells were allowed to adhere overnight, and media was replaced with fresh media containing a range of drug doses. After the specified treatment period, 20 µl of tetrazolium compound inner salt (MTS) containing an electron coupling reagent, phenazine ethosulfate (PES) was added in each well and incubated at 37°C for 1 hour (h). The MTS absorbance was measured spectrophotometrically at 490 nm (minus background absorbance). All cytotoxic experiments were done in triplicate.
Drug combination interactions were analyzed using methods developed by Chou and Talalay.
CalcuSyn (BioSoft, Cambridge, UK) was used to estimate the IC50 for each drug and to determine the combination index, which is a measurement of the type of drug interactions. A combination index (CI) of 1 indicates an additive response, <1 indicates a synergistic response, and >1 indicates an antagonistic response.
On the technique in general: Tetrazolium assays rely on reduction of a dye to a coloured formazan, in cell work by metabolically active cells.

For data set [4], the system named is formation of PAR in MDA-MB-231-BR cellular extracts. As to the kind of experiment: PAR levels in cellular extracts (HT PARP in vivo Pharmacodynamic Assay II). Type of data set: cell-based, human. The settings on record: data not shown. Here is the method: Doxorubicin (NonL-doxo) and PEGylated liposomal doxorubicin (PLD, Doxil®) were both obtained from the University of North Carolina (UNC) Hospitals Pharmacy (Chapel Hill, NC). The poly-ADP-ribose polymerase (PARP) inhibitor, ABT-888, was synthesized by the Chemistry Center for Integrative Chemical Biology and Drug Discovery at UNC (Dr. S. Frye). ABT-888 was dissolved in PBS (phosphate-buffered saline, Life Technologies, Grand Island, NY). The molecular weight of pure ABT-888 is 244.29 g/mol, while the molecular weight of the salt form (which includes 2 HCl molecules) is 317.21 g/mol. All calculations were performed using the molecular weight of the salt form of ABT-888. The ability of ABT-888 to inhibit the formation of PAR was confirmed by measuring PAR levels in MDA-MB-231-BR cellular extracts using HT PARP in vivo Pharmacodynamic Assay II (Trevigen, Gaitherburg, MD, data not shown).

The mark [5] stands for this setting: female, athymic nude (nu/nu), mouse, brain tumor.
Setting [6] is: female, athymic nude (nu/nu), mouse, normal brain.
Setting [7] is: female, athymic nude (nu/nu), mouse, peri-tumoral brain.
Where [8] appears, read: female, athymic nude (nu/nu), mouse, plasma.

Read-outs that look alike come from different tables or passages of the source.

Turning to `COc1cccc2c1C(=O)c1c(O)c3c(c(O)c1C2=O)C[C@@](O)(C(=O)CO)C[C@@H]3O[C@H]1C[C@H](N)[C@H](O)[C@H](C)O1` [NonL-doxo, Doxorubicin], the “time after which sum total doxorubicin was undetectable” value was determined as 24 h in data set [1] (brain tumor); 3 h in data set [1] (normal (contralateral, non-tumor) brain); 6 h in data set [1] (peri-tumoral brain); 24 h in data set [1] (plasma). For the same compound, the Cmax in data set [1] (setting [5]) worked out at 570 ng/mL; in data set [1] (setting [6]) it was 92 ng/mL; in data set [1] (setting [7]) it was 32 ng/mL; in data set [1] (setting [8]), 831 ng/mL. Also, the time of peak concentration (Tmax) in data set [1] (setting [5]) came to 6 h; in data set [1] (setting [6]), 1 h; in data set [1] (setting [7]) it was 3 h; in data set [1] (setting [8]), 0.083 h. Besides, the AUC(0-inf) in data set [1] (setting [5]) was 12100 ng·h/mL; in data set [1] (female, athymic nude (nu/nu), mouse, normal (contralateral, non-tumor) brain), 326 ng·h/mL; in data set [1] (setting [7]), 283 ng·h/mL; in data set [1] (female, athymic nude (nu/nu), mouse, plasma, noncompartmental), 1540 ng·h/mL. In addition, the Vd in data set [1] (setting [8]) stood at 56.2 L/kg. Further, the clearance in data set [1] (female, athymic nude (nu/nu), mouse, plasma, read-out: CL of sum total doxorubicin (converted)) is 64.7 mL/min/kg. The half-life in data set [1] (female, athymic nude (nu/nu), mouse, plasma, read-out: t1/2 of sum total doxorubicin (converted)) is 10 h. Moreover, the “Median Survival and 95% CI” value in data set [2] (6 mg/kg IV weekly, from intracranial cell injection) is on record as 23.5 (18 – 28) days. Further, in data set [3] (6 mg/kg IV weekly single agent, 3 weeks post-treatment), the “highest median fold-change in bioluminescence” value is listed as 4.6. In the data set with MDA-MB-231-BR cells, the IC50 is 0.242 µM.

For `C[C@]1(c2nc3c(C(N)=O)cccc3[nH]2)CCCN1` [ABT-888], the “Median Survival and 95% CI” value in data set [2] (ABT-888 25 mg/kg/day oral gavage, 25 mg/kg/day) is 27 (24 – 31) days. The “highest median fold change from baseline in bioluminescence” value in data set [3] (ABT-888 25 mg/kg/day OG, 4 weeks post-treatment, control 87.8 at 3 weeks) is 41.8. The IC50 in the data set with MDA-MB-231-BR cells came to 277 µM. Also, the “ability to inhibit the formation of PAR” value in data set [4] is “confirmed”.

As a reminder, the Cmax is the peak of the concentration-time curve. As usually defined, the Tmax is the time from dosing to the highest level. Broadly, the Vd is a proportionality between amount in the body and measured concentration, not a real space. In general, IC50 refers to the midpoint of a concentration-inhibition curve.
